Where two headings read alike, the source gives them in different places.
Experiments:
JAK3 = target: T1, JAK3 (Homo sapiens, UniProt P52333); experiment: biochemical
T1 sequence (P52333 1-1124): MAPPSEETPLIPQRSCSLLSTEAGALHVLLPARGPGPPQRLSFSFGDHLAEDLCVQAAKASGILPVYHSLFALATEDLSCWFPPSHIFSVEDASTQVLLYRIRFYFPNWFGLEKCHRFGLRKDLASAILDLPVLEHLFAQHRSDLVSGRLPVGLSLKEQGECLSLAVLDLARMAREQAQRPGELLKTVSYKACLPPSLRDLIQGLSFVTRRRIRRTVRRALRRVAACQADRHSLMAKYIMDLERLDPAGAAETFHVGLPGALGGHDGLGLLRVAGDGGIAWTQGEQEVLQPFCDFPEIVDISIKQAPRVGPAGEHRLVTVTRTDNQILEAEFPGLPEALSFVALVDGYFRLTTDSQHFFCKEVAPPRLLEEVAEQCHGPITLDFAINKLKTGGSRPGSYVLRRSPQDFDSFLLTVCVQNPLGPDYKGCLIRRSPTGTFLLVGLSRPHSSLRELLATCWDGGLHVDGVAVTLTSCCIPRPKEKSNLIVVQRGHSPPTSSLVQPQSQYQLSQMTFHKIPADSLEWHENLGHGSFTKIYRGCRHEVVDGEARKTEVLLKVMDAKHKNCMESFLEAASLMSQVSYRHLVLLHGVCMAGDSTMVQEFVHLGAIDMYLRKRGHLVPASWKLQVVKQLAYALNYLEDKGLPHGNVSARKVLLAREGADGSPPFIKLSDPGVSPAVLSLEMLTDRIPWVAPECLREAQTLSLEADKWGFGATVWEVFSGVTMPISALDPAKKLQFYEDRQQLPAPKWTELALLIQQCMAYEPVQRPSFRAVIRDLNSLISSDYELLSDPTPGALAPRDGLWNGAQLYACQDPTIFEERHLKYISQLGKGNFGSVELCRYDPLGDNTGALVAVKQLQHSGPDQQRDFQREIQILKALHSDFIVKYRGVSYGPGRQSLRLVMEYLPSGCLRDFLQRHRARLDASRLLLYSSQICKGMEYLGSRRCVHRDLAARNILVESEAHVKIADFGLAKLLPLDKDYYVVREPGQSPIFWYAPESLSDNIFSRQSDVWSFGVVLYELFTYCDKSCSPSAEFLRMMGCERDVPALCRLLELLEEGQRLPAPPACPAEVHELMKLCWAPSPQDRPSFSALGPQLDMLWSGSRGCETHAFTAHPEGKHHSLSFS
Experimental: Reactions were carried out in a kinase buffer containing 100 mM HEPES (pH 7.4), 1 mM DTT, 10 mM MgCl2, 25 mM NaCl, and 0.01% BSA. Substrate concentrations in the assay were 5 μM ATP (200 uCi/μmole ATP) and 1 μM poly(Glu)4Tyr. Reactions were carried out at 25° C. and 1 nM JAK3.
To each well of a 96 well polycarbonate plate was added 1.5 μl of a candidate JAK3 inhibitor along with 50 μl of kinase buffer containing 2 μM poly(Glu)4Tyr and 10 μM ATP. This was then mixed and 50 μl of kinase buffer containing 2 nM JAK3 enzyme was added to start the reaction. After 20 minutes at room temperature (25 C), the reaction was stopped with 50 μl of 20% trichloroacetic acid (TCA) that also contained 0.4 mM ATP. The entire contents of each well were then transferred to a 96 well glass fiber filter plate using a TomTek Cell Harvester. After washing, 60 μl of scintillation fluid was added and ^33P incorporation detected on a Perkin Elmer TopCount.

FLT-3 = target: T2, FLT-3 (Homo sapiens, UniProt P36888); experiment: FLT-3 inhibition assay, radiometric filter-binding; type: biochemical
T2 sequence (P36888 27-993): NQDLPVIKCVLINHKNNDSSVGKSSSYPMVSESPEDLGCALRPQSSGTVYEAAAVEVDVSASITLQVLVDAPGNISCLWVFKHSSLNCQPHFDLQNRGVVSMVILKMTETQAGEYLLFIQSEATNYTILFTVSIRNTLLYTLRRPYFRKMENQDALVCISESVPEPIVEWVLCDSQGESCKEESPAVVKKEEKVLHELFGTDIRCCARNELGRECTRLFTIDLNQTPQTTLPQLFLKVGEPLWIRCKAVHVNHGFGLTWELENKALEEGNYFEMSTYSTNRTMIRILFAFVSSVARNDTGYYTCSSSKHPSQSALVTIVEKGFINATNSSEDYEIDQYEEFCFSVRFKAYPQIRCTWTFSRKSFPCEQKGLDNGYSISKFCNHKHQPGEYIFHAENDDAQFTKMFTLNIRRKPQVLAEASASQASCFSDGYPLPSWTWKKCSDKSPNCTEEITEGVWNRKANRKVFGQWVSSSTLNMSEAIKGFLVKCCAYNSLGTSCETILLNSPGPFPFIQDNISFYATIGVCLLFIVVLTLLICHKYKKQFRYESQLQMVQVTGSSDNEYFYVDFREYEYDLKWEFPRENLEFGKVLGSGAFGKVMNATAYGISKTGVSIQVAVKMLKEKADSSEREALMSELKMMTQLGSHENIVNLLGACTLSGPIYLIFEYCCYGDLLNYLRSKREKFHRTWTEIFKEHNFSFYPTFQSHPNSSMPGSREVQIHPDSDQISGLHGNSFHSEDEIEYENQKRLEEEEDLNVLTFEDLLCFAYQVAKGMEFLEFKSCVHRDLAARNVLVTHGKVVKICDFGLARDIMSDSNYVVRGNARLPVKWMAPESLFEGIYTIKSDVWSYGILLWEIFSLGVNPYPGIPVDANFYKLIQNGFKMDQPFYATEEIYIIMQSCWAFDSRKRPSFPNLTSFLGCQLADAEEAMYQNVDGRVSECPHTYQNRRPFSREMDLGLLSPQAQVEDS

Colo205 cells = experiment: Analysis of cell proliferation and viability; type: cell-based; conditions: Homo sapiens, read-out: IC50 value
[1] = COLO 205, Colo205 cells, incubated for 72 hours
[2] = COLO 205, Colo205 cells, incubated for 96 hours

SMILES | Ki (JAK3; read-out: JAK3 Ki value) | Ki (FLT-3) | IC50 (Colo205 cells; [1]) | Ki (JAK3) | Ki (FLT-3; read-out: FLT-3 Ki value) | IC50 (Colo205 cells; [2]) | IC50 (Colo205 cells; COLO 205, 96 h)
Cc1cc(Nc2cc(N3CC(F)(C4CC4)C3)nc(Sc3ccc4nc(C(F)(F)F)cn4c3)n2)[nH]n1 [Compound 190] | 10 to 500 nM | 150 to 1000 nM | 30 to 200 nM | – | – | – | –
Cc1ccc(C(=O)Nc2ccc(Sc3nc(Nc4cc(C)n[nH]4)cc(N4CCC4)n3)cc2)cn1 [Compound 145] | – | – | > 200 nM | 10 to 500 nM | 150 to 1000 nM | – | –
Cc1cc(Nc2cc(N3CC(F)(C4CC4)C3)nc(Sc3ccc(-c4ncc(C)o4)cc3)n2)[nH]n1 [Compound 175] | – | 150 to 1000 nM | > 200 nM | 10 to 500 nM | – | – | –
CC1=NN=C(Nc2cc(N3CCC3)nc(Sc3ccc(NC(=O)c4cccc(Cl)c4F)cc3)n2)C1 [Compound 61] | 10 to 500 nM | 150 to 1000 nM | – | – | – | 50 to 1000 nM | –
Cc1cc(Nc2cc(N3CCC3)nc(Sc3ccc(NC(=O)c4ccncc4C(F)(F)F)cc3)n2)[nH]n1 [Compound 146] | – | 150 to 1000 nM | ≤ 30 nM | 10 to 500 nM | – | – | –
Cc1cc(Nc2cc(N3CC(N4CCOCC4)C3)nc(Sc3ccc(NC(=O)CC(F)(F)F)cc3)n2)[nH]n1 [Compound 199] | ≤ 10 nM | ≤ 50 nM | ≤ 30 nM | – | – | – | –
Cc1cc(Nc2cc(N3CC(F)(C4CC4)C3)nc(Sc3ccc(N)cc3)n2)[nH]n1 [Compound 209] | – | ≤ 50 nM | – | ≤ 10 nM | – | – | –
CCC(=O)Nc1ccc(Sc2nc(Nc3cc(C)n[nH]3)cc(N3CC(O)(C(F)(F)F)C3)n2)cc1 [Compound 94] | 10 to 500 nM | ≤ 50 nM | – | – | – | 50 to 1000 nM | –
COc1ccc(C(=O)Nc2ccc(Sc3nc(Nc4cc(C)n[nH]4)cc(N4CCC4)n3)cc2)cc1 [Compound 117] | – | – | > 200 nM | 10 to 500 nM | 150 to 1000 nM | – | –
Cc1cc(Nc2cc(N3CC(N4CCOCC4)C3)nc(Sc3ccc(NC(=O)C4(C(F)(F)F)CC4)cc3)n2)[nH]n1 [Compound 191] | 10 to 500 nM | – | ≤ 30 nM | – | 150 to 1000 nM | – | –
Cc1cc(Nc2cc(N3CCC3)nc(Oc3ccc(NC(=O)c4ccccc4C(F)(F)F)cc3)n2)[nH]n1 [Compound 134] | – | 50 to 150 nM | 30 to 200 nM | 10 to 500 nM | – | – | –
CC1=NN=C(Nc2cc(N3CCC3)nc(Sc3ccc(NC(=O)c4ccccc4)cc3)n2)C1 [Compound 52] | – | – | – | 10 to 500 nM | 150 to 1000 nM | 50 to 1000 nM | –
Cc1cc(Nc2cc(N3CC(C)(O)C3)nc(Sc3ccc(NC(=O)c4ccccc4C(F)(F)F)cc3)n2)[nH]n1 [Compound 115] | – | 50 to 150 nM | 30 to 200 nM | ≤ 10 nM | – | – | –
CCC(=O)Nc1ccc(Sc2nc(Nc3cc(C)n[nH]3)cc(N3CC(O)(C(C)(C)C)C3)n2)cc1 [Compound 81] | ≤ 10 nM | – | ≤ 30 nM | – | ≤ 50 nM | ≤ 50 nM | –
CC1=NN=C(Nc2cc(N3CCC3)nc(Sc3ccc(NC(=O)C4CCCN4C)cc3)n2)C1 (stereo not shown) [Compound 6] | – | 150 to 1000 nM | – | – | – | 50 to 1000 nM | –
CCC(=O)Nc1ccc(Sc2nc(Nc3cc(C)n[nH]3)cc(N3CC(C)(NC(C)(C)C)C3)n2)cc1 [Compound 80] | – | – | – | 10 to 500 nM | 50 to 150 nM | ≤ 50 nM | –
Cc1ccc(S(=O)(=O)Nc2ccc(Sc3nc(Nc4cc(C)[nH]n4)cc(N4CCC4)n3)cc2)cc1 [Compound 27] | – | 50 to 150 nM | – | 500 to 2000 nM | – | > 1000 nM | –
CCC(=O)Nc1ccc(Sc2nc(Nc3cc(C)n[nH]3)cc(N3CC(C)(O)C3)n2)cc1 [Compound 71] | 10 to 500 nM | – | – | – | 50 to 150 nM | ≤ 50 nM | –
Cc1cc(Nc2cc(N3CCC3)nc(Sc3ccc(C(=O)Nc4ccccc4Cl)cc3)n2)[nH]n1 [Compound 48] | 10 to 500 nM | 150 to 1000 nM | – | – | – | 50 to 1000 nM | –
Cc1ccc2cc(Sc3nc(Nc4cc(C)[nH]n4)cc(N4CC(C5CCC(F)C5)C4)n3)ccc2n1 (stereo not shown) [Compound 198] | 10 to 500 nM | 50 to 150 nM | ≤ 30 nM | – | – | – | –
Cc1cc(Nc2cc(N3CCC3)nc(Sc3ccc(NC(=O)C(F)(F)F)cc3)n2)[nH]n1 [Compound 158] | ≤ 10 nM | – | > 200 nM | – | 50 to 150 nM | – | –
Cc1cc(Nc2cc(N3CCC3)nc(Sc3ccc(NC(=O)C4CC4(F)F)cc3)n2)[nH]n1 (stereo not shown) [Compound 112] | ≤ 10 nM | – | > 200 nM | – | ≤ 50 nM | – | –
Cc1cc(Nc2cc(N3CCC3)nc(Sc3ccc(C(=O)NCc4ccccc4Cl)cc3)n2)n[nH]1 [Compound 24] | – | 150 to 1000 nM | – | 500 to 2000 nM | – | > 1000 nM | –
Cc1cc(Nc2cc(N3CCC3)nc(Sc3ccc(NC(=O)c4ccc(Cl)cc4)cc3)n2)n[nH]1 [Compound 54] | – | 150 to 1000 nM | – | 10 to 500 nM | – | 50 to 1000 nM | –
Cc1cc(Nc2cc(N3CCC3)nc(Sc3ccc(NC(=O)C(C)(C)C)cc3)n2)[nH]n1 [Compound 114] | – | – | > 200 nM | 500 to 2000 nM | 150 to 1000 nM | – | –
CCC(=O)Nc1ccc(Sc2nc(C#CC(C)(C)N3CCC3)cc(Nc3cc(C)n[nH]3)n2)cc1 [Compound 77] | – | 150 to 1000 nM | – | 500 to 2000 nM | – | 50 to 1000 nM | –
Cc1cc(Nc2cc(N3CCC3)nc(Sc3ccc4ccccc4c3)n2)n[nH]1 [Compound 25] | – | ≤ 50 nM | – | ≤ 10 nM | – | > 1000 nM | –
Cc1ccc(C(=O)Nc2ccc(Sc3nc(Nc4cc(C)[nH]n4)cc(N4CCC4)n3)cc2)cc1 [Compound 28] | – | 150 to 1000 nM | – | 10 to 500 nM | – | 50 to 1000 nM | –
CCC(=O)Nc1ccc(Sc2nc(Nc3cc(C)[nH]n3)cc(N3CCC3)n2)cc1 [Compound 14] | 10 to 500 nM | – | – | – | 50 to 150 nM | – | 50 to 1000 nM
Cc1cc(Nc2cc(N3CCC3)nc(Sc3ccc(N(C)C(=O)c4ccccc4F)cc3)n2)n[nH]1 [Compound 10] | – | 50 to 150 nM | – | 10 to 500 nM | – | – | –

Source: patent US8637511B2, “Aminopyrimidines useful as kinase inhibitors” (Vertex Pharmaceuticals Incorporated, priority 2005, dated 2014)
